Experimental data taken from paper PMC6944208 (Journal of the American Chemical Society, 2019).

Biological target: T1, MePqqB (Methylobacterium extorquens PqqB, Me PqqB) (Methylorubrum extorquens, UniProt Q49149)
T1 sequence (Q49149 1-299): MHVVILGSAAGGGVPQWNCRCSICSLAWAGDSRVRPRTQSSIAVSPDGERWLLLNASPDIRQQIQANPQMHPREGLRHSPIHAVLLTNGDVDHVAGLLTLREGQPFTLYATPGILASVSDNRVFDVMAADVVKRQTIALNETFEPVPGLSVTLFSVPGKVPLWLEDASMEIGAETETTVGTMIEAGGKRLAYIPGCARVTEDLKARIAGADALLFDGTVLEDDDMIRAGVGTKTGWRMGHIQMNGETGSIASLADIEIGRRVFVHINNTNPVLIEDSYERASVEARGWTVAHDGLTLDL
Assay: isothermal titration calorimetry
Format: binding

Kd: ~200 nM
SMILES: N[C@@H](CSc1cc(C[C@H](N)C(=O)O)cc(O)c1O)C(=O)O [Cys-DOPA]
